According to patent publication US6914045B2, “Glycopeptide antibiotics” (Wyeth Holdings Corporation, priority 2001, dated 2005):
≈ marks a conversion by molar mass, not a printed value.

Tests used:
Assay in all cases: in vitro antibacterial evaluation, MIC by broth dilution
Assay type in all cases: cell-based
Enterococcus sp. = conditions: broth dilution, 18 hours at 35° C.; for MIC Enterococcus faecalis (ATCC 29212): strain ATCC 29212; for MIC Enterococcus faecalis (GC 2242): strain GC 2242; for MIC Enterococcus faecium (GC 2243): strain GC 2243; for MIC Enterococcus faecalis (GC 2691): strain GC 2691; for MIC Enterococcus faecalis (GC 3059): strain GC 3059; for MIC Enterococcus faecalis (GC 4552): strain GC 4552; for MIC Enterococcus faecalis (GC 4553): strain GC 4553; for MIC Enterococcus faecalis (GC 4554): strain GC 4554; for MIC Enterococcus faecium (GC 4556): strain GC 4556; for MIC Enterococcus faecium (GC 4557): strain GC 4557; for MIC Enterococcus avium (GC 4558): strain GC 4558; for MIC Enterococcus faecalis (GC 6189): strain GC 6189
In short: (§1)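 MIC = lowest antibiotic concentration preventing visible growth; inoculum 5×10^5 CFU/mL; drug range 64-0.06 μg/mL; Muller-Hinton II […]; NCCLS M7-A2 guidance.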

Escherichia coli = test system: Escherichia coli
In short: as §1

Staphylococcus sp. = conditions: broth dilution, 18 hours at 35° C.; for MIC Staphylococcus aureus (GC 1131): strain GC 1131
In short: as §1

Streptococcus sp. = conditions: broth dilution, 18 hours at 35° C.; for MIC Streptococcus pneumoniae (ATCC 6301): strain ATCC 6301; for MIC Streptococcus pneumoniae (GC 1894): strain GC 1894; for MIC Streptococcus pyogenes (GC 4563): strain GC 4563; for MIC Streptococcus agalactiae (GC 4564): strain GC 4564; for MIC Streptococcus pneumoniae (GC 4565): strain GC 4565
In short: as §1

## CCOc1cc(C2OCC3OC(OC4C(CO)OC(Oc5ccc(CC6NC(=O)C(C(C)c7ccccc7)NC(=O)CNC(=O)C(CO)NC(=O)C(C(O)C7CNC(=N)N7C7OC(CO)C(O)C(O)C7O)NC(=O)C(C(O)C7CNC(=N)N7)NC6=O)cc5)C(O)C4O)C(O)C(O)C3O2)ccc1[N+](=O)[O-] (centres unmarked) [Example 167]
Enterococcus sp.; inoculum 5×10^5 CFU/mL
  MIC Enterococcus faecalis (ATCC 29212): 32 µg/mL (≈ 21.7 µM)
  MIC Enterococcus faecalis (GC 2242): 32 µg/mL (≈ 21.7 µM)
  MIC Enterococcus faecium (GC 2243): 32 µg/mL (≈ 21.7 µM)
  MIC Enterococcus faecalis (GC 2691): 32 µg/mL (≈ 21.7 µM)
  MIC Enterococcus faecalis (GC 3059): 32 µg/mL (≈ 21.7 µM)
  MIC Enterococcus faecalis (GC 4552): 32 µg/mL (≈ 21.7 µM)
  MIC Enterococcus faecalis (GC 4553): 32 µg/mL (≈ 21.7 µM)
  MIC Enterococcus faecalis (GC 4554): 32 µg/mL (≈ 21.7 µM)
  MIC Enterococcus faecium (GC 4556): 32 µg/mL (≈ 21.7 µM)
  MIC Enterococcus faecium (GC 4557): 8 µg/mL (≈ 5.43 µM)
  MIC Enterococcus avium (GC 4558): 32 µg/mL (≈ 21.7 µM)
  MIC Enterococcus faecalis (GC 6189): 32 µg/mL (≈ 21.7 µM)
Enterococcus sp.
  MIC Enterococcus faecalis (ATCC 29212): 32 µg/mL (≈ 21.7 µM)
  MIC Enterococcus faecalis (GC 2242): 32 µg/mL (≈ 21.7 µM)
  MIC Enterococcus faecium (GC 2243): 32 µg/mL (≈ 21.7 µM)
  MIC Enterococcus faecalis (GC 2691): 32 µg/mL (≈ 21.7 µM)
  MIC Enterococcus faecalis (GC 3059): 32 µg/mL (≈ 21.7 µM)
  MIC Enterococcus faecalis (GC 4552): 32 µg/mL (≈ 21.7 µM)
  MIC Enterococcus faecalis (GC 4553): 32 µg/mL (≈ 21.7 µM)
  MIC Enterococcus faecalis (GC 4554): 32 µg/mL (≈ 21.7 µM)
  MIC Enterococcus faecium (GC 4556): 32 µg/mL (≈ 21.7 µM)
  MIC Enterococcus faecium (GC 4557): 8 µg/mL (≈ 5.43 µM)
  MIC Enterococcus avium (GC 4558): 32 µg/mL (≈ 21.7 µM)
  MIC Enterococcus faecalis (GC 6189): 32 µg/mL (≈ 21.7 µM)
Escherichia coli; strain ATCC 25922, 18 hours at 35° C.
  MIC Escherichia coli (ATCC 25922): >128 µg/mL
Escherichia coli; strain GC 4559, 18 hours at 35° C.
  MIC Escherichia coli (GC 4559): >128 µg/mL
Escherichia coli; strain GC 4560, 18 hours at 35° C.
  MIC Escherichia coli (GC 4560): 8 µg/mL (≈ 5.43 µM)
Staphylococcus sp.; inoculum 5×10^5 CFU/mL
  MIC Staphylococcus aureus (GC 1131): 16 µg/mL (≈ 10.9 µM)
Staphylococcus sp.; strain ATCC 29213
  MIC Staphylococcus aureus (ATCC 29213): 16 µg/mL (≈ 10.9 µM)
Staphylococcus sp.
  MIC Staphylococcus aureus (GC 1131): 16 µg/mL (≈ 10.9 µM)
Staphylococcus sp.; strain GC 3051
  MIC Staphylococcus aureus (GC 3051): 16 µg/mL (≈ 10.9 µM)
Staphylococcus sp.; strain GC 3053
  MIC Staphylococcus aureus (GC 3053): 16 µg/mL (≈ 10.9 µM)
Staphylococcus sp.; strain GC 4541
  MIC Staphylococcus aureus (GC 4541): 8 µg/mL (≈ 5.43 µM)
Staphylococcus sp.; strain GC 4542
  MIC Staphylococcus aureus (GC 4542): 16 µg/mL (≈ 10.9 µM)
Staphylococcus sp.; strain GC 4543
  MIC Staphylococcus aureus-SMITH (GC 4543): 16 µg/mL (≈ 10.9 µM)
Staphylococcus sp.; strain GC 4544
  MIC Staphylococcus aureus (GC 4544): 16 µg/mL (≈ 10.9 µM)
Staphylococcus sp.; strain GC 4545
  MIC Staphylococcus aureus (GC 4545): 16 µg/mL (≈ 10.9 µM)
Staphylococcus sp.; strain GC 4546
  MIC Staphylococcus haemolyticus (GC 4546): 16 µg/mL (≈ 10.9 µM)
Staphylococcus sp.; strain GC 4547
  MIC Coagulase Negative Staphylococcus (GC 4547): 8 µg/mL (≈ 5.43 µM)
Staphylococcus sp.; strain GC 4548
  MIC Coagulase Negative Staphylococcus (GC 4548): 8 µg/mL (≈ 5.43 µM)
Staphylococcus sp.; strain GC 4549
  MIC Coagulase Negative Staphylococcus (GC 4549): 8 µg/mL (≈ 5.43 µM)
Staphylococcus sp.; strain GC 4551
  MIC Coagulase Negative Staphylococcus (GC 4551): 16 µg/mL (≈ 10.9 µM)
Staphylococcus sp.; strain GC 6257
  MIC Coagulase Negative Staphylococcus (GC 6257): 8 µg/mL (≈ 5.43 µM)
Streptococcus sp.; inoculum 5×10^5 CFU/mL
  MIC Streptococcus pneumoniae (ATCC 6301): 1 µg/mL (≈ 0.679 µM)
  MIC Streptococcus pneumoniae (GC 1894): 0.25 µg/mL (≈ 0.17 µM)
  MIC Streptococcus pyogenes (GC 4563): 1 µg/mL (≈ 0.679 µM)
  MIC Streptococcus agalactiae (GC 4564): 2 µg/mL (≈ 1.36 µM)
  MIC Streptococcus pneumoniae (GC 4565): 1 µg/mL (≈ 0.679 µM)
Streptococcus sp.
  MIC Streptococcus pneumoniae (ATCC 6301): 1 µg/mL (≈ 0.679 µM)
  MIC Streptococcus pneumoniae (GC 1894): 0.25 µg/mL (≈ 0.17 µM)
  MIC Streptococcus pyogenes (GC 4563): 1 µg/mL (≈ 0.679 µM)
  MIC Streptococcus agalactiae (GC 4564): 2 µg/mL (≈ 1.36 µM)
  MIC Streptococcus pneumoniae (GC 4565): 1 µg/mL (≈ 0.679 µM)
